Results from ChEMBL document CHEMBL1201862, “PubChem BioAssay data set” (2004).
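Dose response: 5 concentrations. Exposure: 48 h. Format: 96-well plates. Endpoint: linear interpolation; highest concentration if not reached. GI50 is the concentration that inhibits growth by half.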 The source made the active and inactive calls. Cut-off read from the data, not from the text of the source: active = GI50 up to about 1.1 µM and inactive = higher.

Tests used:
Assay in all cases: inhibition of tumour cell growth, NCI panel, 48 h
786-0 = tested on: 786-0
A498 = tested on: A498
A549 = tested on: A549
ACHN = tested on: ACHN
BT-549 = tested on: BT-549
CAKI-1 = tested on: CAKI-1
CCRF-CEM = tested on: CCRF-CEM
COLO 205 = tested on: COLO 205
DLD-1 = tested on: DLD-1
DMS-114 = tested on: DMS-114
DMS-273 = tested on: DMS-273
DU-145 = tested on: DU-145
EKVX = tested on: EKVX
HCC 2998 = tested on: HCC 2998
HCT-116 = tested on: HCT-116
HCT-15 = tested on: HCT-15
HL-60 = tested on: HL-60
HOP-18 = tested on: HOP-18
HOP-62 = tested on: HOP-62
HOP-92 = tested on: HOP-92
HT-29 = tested on: HT-29
Hs-578T = tested on: Hs-578T
IGROV-1 = tested on: IGROV-1
K562 = tested on: K562
KM-20L2 = tested on: KM-20L2
KM12 = tested on: KM12
LOX IMVI = tested on: LOX IMVI
LXFL 529 = tested on: LXFL 529
M14 = tested on: M14
M19-MEL = tested on: M19-MEL
MCF7 = tested on: MCF7
MDA-MB-231 = tested on: MDA-MB-231
MDA-MB-435 = tested on: MDA-MB-435
MDA-N = tested on: MDA-N
MOLT-4 = tested on: MOLT-4
Malme-3M = tested on: Malme-3M
NCI-H226 = tested on: NCI-H226
NCI-H460 = tested on: NCI-H460
NCI-H522 = tested on: NCI-H522
NCI/ADR-RES = tested on: NCI/ADR-RES
OVCAR-3 = tested on: OVCAR-3
OVCAR-4 = tested on: OVCAR-4
OVCAR-5 = tested on: OVCAR-5
OVCAR-8 = tested on: OVCAR-8
PC-3 = tested on: PC-3
RPMI-8226 = tested on: RPMI-8226
RXF 393 = tested on: RXF 393
RXF 631 = tested on: RXF 631
SF-268 = tested on: SF-268
SF-295 = tested on: SF-295
SF-539 = tested on: SF-539
SK-MEL-28 = tested on: SK-MEL-28
SK-MEL-2 = tested on: SK-MEL-2
SK-MEL-5 = tested on: SK-MEL-5
SK-OV-3 = tested on: SK-OV-3
SN12C = tested on: SN12C
SNB-19 = tested on: SNB-19
SNB-75 = tested on: SNB-75
SNB-78 = tested on: SNB-78
SR = tested on: SR
SW-620 = tested on: SW-620
T47D = tested on: T47D
TK-10 = tested on: TK-10
U-251 = tested on: U-251
UACC-257 = tested on: UACC-257
UACC-62 = tested on: UACC-62
UO-31 = tested on: UO-31
XF498 = tested on: XF498

In the case of `Cc1cc2c(c3oc(C(O)(CO)C4CO4)cc(=O)c13)C(=O)c1c(O)cccc1C2=O` (stereo not drawn), the GI50 (786-0) is reported as 0.439 nM (active), the GI50 (A498) is reported as 2.12 nM (active) and the GI50 (A549) is reported as 1.49 nM (active). For the same molecule, the GI50 (ACHN) was 0.278 nM (active), the GI50 (BT-549) was 2.96 nM (active) and the GI50 (CAKI-1) was 0.463 nM (active). For the same molecule, the GI50 (CCRF-CEM) was 0.0414 nM (active), the GI50 (COLO 205) was 1.63 nM (active) and the GI50 (DLD-1) was < 10 nM (active). For the same molecule, the GI50 (DMS-114) was < 10 nM (active), the GI50 (DMS-273) was < 10 nM (active) and the GI50 (DU-145) was 0.552 nM (active). For the same molecule, the GI50 (EKVX) was 2.3 nM (active), the GI50 (HCC 2998) was 1.31 nM (active) and the GI50 (HCT-116) was 0.363 nM (active). The GI50 (HCT-15) was 0.887 nM, the GI50 (HL-60) was 0.377 nM (active) and the GI50 (HOP-18) was < 10 nM (active). For the same molecule, the GI50 (HOP-62) was 1.47 nM (active), the GI50 (HOP-92) was 0.13 nM (active) and the GI50 (HT-29) was 1.04 nM (active). For the same molecule, the GI50 (Hs-578T) was 4.36 nM (active), the GI50 (IGROV-1) was 0.266 nM (active) and the GI50 (K562) was 0.982 nM (active). For the same molecule, the GI50 (KM-20L2) was < 10 nM (active), the GI50 (KM12) was 1.04 nM (active) and the GI50 (LOX IMVI) was 0.356 nM (active). For the same molecule, the GI50 (LXFL 529) was < 10 nM (active), the GI50 (M14) was 1.68 nM (active) and the GI50 (M19-MEL) was < 10 nM (active). For the same molecule, the GI50 (MCF7) was 0.435 nM (active), the GI50 (MDA-MB-231) was 2.13 nM (active) and the GI50 (MDA-MB-435) was 1.21 nM (active). For the same molecule, the GI50 (MDA-N) was 1.31 nM (active), the GI50 (MOLT-4) was 0.145 nM (active) and the GI50 (Malme-3M) was 1.69 nM (active). For the same molecule, the GI50 (NCI-H226) was 2.37 nM (active), the GI50 (NCI-H460) was 0.372 nM (active) and the GI50 (NCI-H522) was 1.2 nM (active). For the same molecule, the GI50 (NCI/ADR-RES) was 1.29 nM (active), the GI50 (OVCAR-3) was 2.9 nM (active) and the GI50 (OVCAR-4) was 1.58 nM (active). For the same molecule, the GI50 (OVCAR-5) was 2.29 nM (active), the GI50 (OVCAR-8) was 0.569 nM (active) and the GI50 (PC-3) was 0.841 nM (active). The GI50 (RPMI-8226) was 0.313 nM (active), the GI50 (RXF 393) was 1.25 nM (active) and the GI50 (RXF 631) was < 10 nM (active). For the same molecule, the GI50 (SF-268) was 1.56 nM (active), the GI50 (SF-295) was 1.39 nM (active) and the GI50 (SF-539) was 0.662 nM (active). The GI50 (SK-MEL-28) was 2.19 nM (active), the GI50 (SK-MEL-2) was 1.51 nM (active) and the GI50 (SK-MEL-5) was 2 nM (active). The GI50 (SK-OV-3) was 1.88 nM (active), the GI50 (SN12C) was 0.674 nM (active) and the GI50 (SNB-19) was 1.19 nM (active). For the same molecule, the GI50 (SNB-75) was 1.22 nM (active), the GI50 (SNB-78) was 31 nM (active) and the GI50 (SR) was 0.213 nM (active). For the same molecule, the GI50 (SW-620) was 0.377 nM (active), the GI50 (T47D) was 1.63 nM (active) and the GI50 (TK-10) was 2.44 nM (active). For the same molecule, the GI50 (U-251) was 0.826 nM (active), the GI50 (UACC-257) was 2.79 nM (active) and the GI50 (UACC-62) was 1.19 nM (active). For the same molecule, the GI50 (UO-31) was 0.154 nM (active) and the GI50 (XF498) was < 10 nM (active).
